≈ marks a conversion by molar mass, not a printed value.
How the values were obtained:
[1] = Equilibrium solubility of 4-iodo-3-nitrobenzamide, overnight at 25° C., measured by HPLC; format: physicochemical; conditions: for solubility: 25 °C, thermodynamic from solid
Experimental: Excess 4-iodo-3-nitrobenzamide (“BA”) was equilibrated overnight (>16 hr) at 25° C. in purified water, 0.01M HCl (pH2), 0.01M NaOH ([…]), and 0.9% NaCl. Following dilution, the solubility of the drug was measured by HPLC.
Excess 4-iodo-3-nitrobenzamide was equilibrated overnight (>16 hr) at 25° C. in solutions of purified water containing various concentrations of cyclodextrins including hydroxypropyl-β-cyclodextrin (Kleptose® from Roquette) (HPBCD), sulfobutyl ether-β-cyclodextrin (Captisol® from Cyclex) (SBEBCD), and Hyroxypropyl-γ-cyclodextrin (Cavamax W8® from Wacker) (HPGCD). Following dilution, the solubility of the drug was measured by HPLC.
Excess 4-iodo-3-nitrobenzamide was equilibrated overnight (>16 hr) at 25° C. in purified water containing various concentrations of the surfactants: polyethylene sorbitan monooleate (Polysorbate 80), polyoxyethylene sorbitan monolaurate (Polysorbate 20), Cremophor EL (BASF), Cremophor RH40 (BASF), Poloxamer 118, and Solutol HS-15 (BASF). Following dilution, the solubility of the drug was measured by HPLC.
Excess 4-iodo-3-nitrobenzamide was equilibrated overnight (>16 hr) at 25° C. in solutions of purified water containing various co-solvents including ethanol, glycofurol, glycerin formal, benzyl alcohol, N,N, dimethylacetamide (DMA), polyethylene glycol (PEG) 400, and propylene glycol. Following dilution, the solubility of the drug was measured by HPLC.
Excess 4-iodo-3-nitrobenzamide was equilibrated overnight (>16 hr) at 25° C. in solutions in purified water containing mixtures of solubilizers. Following dilution, the solubility of the drug was measured by HPLC.

[2] = Saturated solubility of BA in solvents, 25° C., absorbance at 320 nm; format: physicochemical; conditions: thermodynamic from solid

SMILES: NC(=O)c1ccc(I)c([N+](=O)[O-])c1 [BA, 4-iodo-3-nitrobenzamide]
- solubility ([1]; 100% ethanol, organic solvent or mixture, Ethanol 100%, 25° C., read-out: Solubility): 14.1 mg/mL (≈ 48.1 mM)
- solubility ([1]; 100% glycerin formal, organic solvent or mixture, Glycerin Formal 100%, 25° C., read-out: Solubility): 15.1 mg/mL (≈ 51.8 mM)
- solubility ([1]; 100% glycofurol, organic solvent or mixture, Glycofurol 100%, 25° C., read-out: Solubility): 15 mg/mL (≈ 51.3 mM)
- Enhancement ([1]; Benzyl alcohol 100%): 85.3
- Enhancement ([1]; Cremophor EL 10%): 19.2
- Enhancement ([1]; Cremophor RH40 10%): 18.5
- Enhancement ([1]; DMA 5%): 7.6
- Enhancement ([1]; DMA 100%): 392.6
- Enhancement ([1]; Ethanol 50%): 31.4
- Enhancement ([1]; Ethanol 100%): 77.2
- Enhancement ([1]; Glycerin Formal 50%): 19.0
- Enhancement ([1]; Glycerin Formal 100%): 83.2
- Enhancement ([1]; Glycofurol 50%): 54.1
- Enhancement ([1]; Glycofurol 100%): 82.3
- Enhancement ([1]; HPBCD 10%, vs no solubilizer): 26.7
- Enhancement ([1]; HPBCD 20%, vs no solubilizer): 54.8
- Enhancement ([1]; HPBCD 25%, vs no solubilizer): 63.0
- Enhancement ([1]; HPBCD 40%, vs no solubilizer): 70.2
- Enhancement ([1]; HPGCD 25%, vs no solubilizer): 1.5
- Enhancement ([1]; PEG 400 50%): 42.1
- Enhancement ([1]; Poloxamer 118 10%): 2.4
- Enhancement ([1]; Polysorbate 20 10%): 20.1
- Enhancement ([1]; Polysorbate 20 100%): 59.6
- Enhancement ([1]; Polysorbate 80 10%): 17.2
- Enhancement ([1]; Polysorbate 80 100%): 92.8
- Enhancement ([1]; Propylene glycol 50%): 12.3
- Enhancement ([1]; SBEBCD 25%, vs no solubilizer): 60.6
- Enhancement ([1]; Solubilizer None 0%): 1.0
- Enhancement ([1]; Solutol HS 15 25%): 36.0
- Enhancement ([1]; Solutol HS 15 30%): 41.0
- solubility ([1]; purified water containing mixtures of solubilizers, aqueous with cosolvent or surfactant or cyclodextrin, 5% Polysorbate 80/10% EtOH/40% PEG 400, 25° C., read-out: Solubility): 1.23 mg/mL (≈ 4.21 mM)
- solubility ([1]; purified water containing mixtures of solubilizers, aqueous with cosolvent or surfactant or cyclodextrin, 10% EtOH/10% Polysorbate 80, 25° C., read-out: Solubility): 2.3 mg/mL (≈ 7.88 mM)
- solubility ([1]; purified water containing mixtures of solubilizers, aqueous with cosolvent or surfactant or cyclodextrin, 10% EtOH/40% PEG 400, 25° C., read-out: Solubility): 3.42 mg/mL (≈ 11.7 mM)
- solubility ([1]; purified water containing mixtures of solubilizers, aqueous with cosolvent or surfactant or cyclodextrin, 10% EtOH/40% PEG 400,/5% Benzyl Alcohol, 25° C., read-out: Solubility): 3.11 mg/mL (≈ 10.7 mM)
- solubility ([1]; purified water containing mixtures of solubilizers, aqueous with cosolvent or surfactant or cyclodextrin, 10% glycofurol, 40% PEG 400, 25° C., read-out: Solubility): 6.12 mg/mL (≈ 21 mM)
- solubility ([1]; purified water, water, Purified Water, 25° C., read-out: Solubility): 0.182 mg/mL (≈ 0.623 mM)
- solubility ([1]; water without solubilizer, water, water, no solubilizer, summary of Table 1, read-out: Solubility in water without any solubilizer): ≤ 0.2 mg/mL
- solubility ([2]; 35% v/v DMA in Capmul PG-8, 25 °C, oil or lipid, 35% v/v DMA in Capmul PG-8, read from the graph of FIG. 2, read-out: Saturated solubility): ~220 mg/mL (≈ 753 mM)
- solubility ([2]; solvent (liquid filled capsule vehicle), 25 °C, oil or lipid, 10% v/v DMA in Capmul, 25° C., read-out: BA Solubility): 57 mg/mL (≈ 195 mM)
- solubility ([2]; solvent (liquid filled capsule vehicle), 25 °C, oil or lipid, 20% v/v DMA in Capmul, 25° C., read-out: BA Solubility): 89 mg/mL (≈ 305 mM)
- solubility ([2]; solvent (liquid filled capsule vehicle), 25 °C, oil or lipid, 30% v/v DMA in Capmul, 25° C., read-out: BA Solubility): 176 mg/mL (≈ 603 mM)
- solubility ([2]; solvent (liquid filled capsule vehicle), 25 °C, oil or lipid, 40% DMA in Capmul, 25° C., read-out: BA Solubility): 276 mg/mL (≈ 945 mM)
- solubility ([2]; solvent (liquid filled capsule vehicle), 25 °C, oil or lipid, 40% v/v Transcutol in Capmul, 25° C., read-out: BA Solubility): 73 mg/mL (≈ 250 mM)
- solubility ([2]; solvent (liquid filled capsule vehicle), 25 °C, oil or lipid, 100% Capmul, 25° C., read-out: BA Solubility): 32 mg/mL (≈ 110 mM)
- solubility ([2]; solvent (liquid filled capsule vehicle), 25 °C, oil or lipid, 100% Labrafil, 25° C., read-out: BA Solubility): 18 mg/mL (≈ 61.6 mM)
- solubility ([2]; solvent (liquid filled capsule vehicle), 25 °C, organic solvent or mixture, 20% v/v glycerol, 3% v/v water in PEG 400, 25° C., read-out: BA Solubility): 192 mg/mL (≈ 657 mM)
- solubility ([2]; solvent (liquid filled capsule vehicle), 25 °C, organic solvent or mixture, 25% w/v Solutol in PEG 400, 25° C., read-out: BA Solubility): 224 mg/mL (≈ 767 mM)
- solubility ([2]; solvent (liquid filled capsule vehicle), 25 °C, organic solvent or mixture, 25% w/v Vit E TPGS in PEG 400, 25° C., read-out: BA Solubility): 204 mg/mL (≈ 699 mM)
- solubility ([2]; solvent (liquid filled capsule vehicle), 25 °C, organic solvent or mixture, 100% NMP, 25° C., read-out: BA Solubility): 319 mg/mL (≈ 1090 mM)
- solubility ([2]; solvent (liquid filled capsule vehicle), 25 °C, organic solvent or mixture, 100% PEG 400, 25° C., read-out: BA Solubility): 186 mg/mL (≈ 637 mM)
- solubility ([2]; solvent (liquid filled capsule vehicle), 25 °C, organic solvent or mixture, 100% Transcutol, 25° C., read-out: BA Solubility): 192 mg/mL (≈ 657 mM)

Reference: US20100160442A1, “FORMULATIONS FOR CANCER TREATMENT” (priority 2006, published 2010)
